The source of these data is PMC6478823, “A suite of phenotypic assays to ensure pipeline diversity when prioritizing drug-like Cryptosporidium growth inhibitors” (Nature Communications, 2019).

One experiment has as its system C. parvum. In words: NOD SCID gamma (NSG) mouse model of chronic cryptosporidiosis. It counts as in vivo. The following applies: oral gavage, 4-day treatment course. The source says:
It is feasible that Cryptosporidium is most susceptible to drug treatments that show the greatest activity in only one of the mode of action assays described above, which would complicate use of these assays for maintaining a diverse anticryptosporidial pipeline. Therefore, to further test the strategy of ensuring a mechanistically diverse pipeline of anticryptosporidials, it was critical to know that compounds belonging to different phenotypic effect clusters (as in Fig. 7) could work in vivo. For this, thirty-one of the thirty-nine compounds were tested in a mouse model of cryptosporidiosis. There is considerable variability in the in vivo efficacy of anticryptosporidials tested in different mouse models[15],[34]–[39], and it remains unknown which animal models will best predict drug efficacy in humans. […] The piperazine-based compound MMV665917, however, is efficacious in both the acute IFN-γ KO and chronic NSG mouse models. […] Given that the goal of this study was to determine if compounds belonging to different phenotypic clusters might be active in vivo, we assessed in vivo efficacy using the stringent NSG mouse model.
The NOD SCID gamma mouse model for treatment of established cryptosporidiosis was reported previously. […] Oocyst shedding in feces was monitored by qPCR for 18s rRNA gene with the primers Cp18s forward and Cp18s reverse. […]

Experiment [1] relates to Cryptosporidium. Also on record: method as in Downey, et al. 2008. AAC. The following applies: ref Downey, et al. 2008. AAC.; cited from earlier work.
The test system of experiment [2] is Cryptosporidium. Details: method as in Lee, et al. 2018. AAC. The following applies: ref Lee, et al. 2018. AAC; cited from earlier work.

As to `CC(=O)Oc1ccccc1C(=O)Nc1ncc([N+](=O)[O-])s1` [Nitazoxanide], the “efficacy in the NSG mouse model (reduction in fecal oocyst shedding)” value with C. parvum was “no effect”.

Take `Cc1cc(/C=C/c2ccc3cc(N(C)C)ccc3[n+]2C)c(C)n1-c1ccccc1` [Pyrvinium pamoate]: the “anticryptosporidial activity in neonatal mouse model” value in the experiment with Cryptosporidium [1] is “previously demonstrated anticryptosporidial activity”.

For the molecule `CCOc1ccc2cc(-c3nn(CC4CCN(C)CC4)c4ncnc(N)c34)ccc2n1` [BKI-1369], the “anticryptosporidial efficacy in gnotobiotic piglet model” value in the experiment on Cryptosporidium [2] was “previously demonstrated anticryptosporidial efficacy”.
